# Test results taken from patent publication US20260184807A1, “Methods for Treating Rheumatoid Arthritis Using a Syndecan-1 Inhibitor or Syntenin-1 Inhibitor” (The United States Government as represented by the …, priority 2022, published 2026).
# System: HUVECs
# Experiment: Syntenin-1 stimulation and inhibition in HUVECs (qRT-PCR)
# Assay type: cell-based, human
# Settings: Syntenin-1 1000 ng/ml, mTORi 1 μM, cMYCi 50 μM
# Method: FIGS. 11A-J show Syntenin-1 reprogrammed endothelial cells display a robust inflammatory phenotype. Relative expression of Syntenin-1 (FIG. 11A) or SDC-1 (FIG. 11B) was determined by RNAseq (Lewis M J, et al. Cell reports. 2019; 28:2455-2470 e2455) in synovial tissue biopsies from RA non-responsive (Non-R)(ΔDAS28≤0.6, n=16-23) and moderate (ΔDAS28 1.2 & >0.6, n=21) and good responsive (ΔDAS28>1.2, n=35-50) patients. […] HUVECs were treated with PBS (ctrl) or Syntenin-1 (1000 ng/ml) for 6 h and transcription of IRFs (FIG. 11E), inflammatory mediators (FIG. 11F), TLRs (FIG. 11I), and pro-repair factors (FIG. 11J) were assessed by qRT-PCR (n=7-12). HUVECs were treated with PBS or Syntenin-1 (1000 ng/ml) in the presence or absence of SDC-1 Ab (SDCab; 1:100), IL-5R Ab (IL5Ra; 2 μg/ml), or PDZli (PDZ1; 10 μM) for 6 h before quantifying transcription levels of TNFα (FIG. 11G) and IL-1β (FIG. 11H), (5-7). Data are presented as mean±SEM; significant differences were determined by the Mann-Whitney test, 2way ANOVA, or one-way ANOVA. *p<0.05, **p<0.01, ***p<0.001, ****p<0.0001. […]
# Syntenin-1 stimulation and inhibition. […] Cells were subsequently harvested in TRIzol reagent (Life Technologies) or RIPA buffer (Cell Signaling Technology) for mRNA quantification and western blot analysis; conditioned media was collected for ELISA.
# Quantitative Real-Time PCR. […]
smiles,measurement,setting,value
"CO[C@H]1C[C@@H]2CC[C@@H](C)[C@@](O)(O2)C(=O)C(=O)N2CCCC[C@H]2C(=O)O[C@H]([C@H](C)C[C@@H]2CC[C@@H](OCCO)[C@H](OC)C2)CC(=O)[C@H](C)/C=C(\C)[C@@H](O)[C@@H](OC)C(=O)[C@H](C)C[C@H](C)/C=C/C=C/C=C/1C [mTORi, Everolimus]",TNF expression in Syntenin-1-reconfigured endothelial cells,"HIF1αi 2 μM, FIG. 13H",diminished
same,Syntenin-1-elevated HIF1α expression levels,FIG. 13E,dysregulated
